In article PMC10648349, “Aromatic Diboronic Acids as Effective KPC/AmpC Inhibitors” (Molecules, 2023):
≈ marks a conversion by molar mass, not a printed value. Like-named read-outs stand apart in the source and are kept apart here.

Experiments:
E. faecalis ATCC 29212 = assay: direct antimicrobial activity (disc-diffusion, MIC, MBC); assay type: cell-based; conditions: Enterococcus faecalis, ATCC29212
How it was run: (§1)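 First, discs bearing 0.4 mg of compound in DMSO were tested for growth inhibition. Next, MIC was determined, followed by MBC for bacteria or MFC for yeasts, all per EUCAST and CLSI.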

E. faecium ATCC 6057 = assay: as above; assay type: cell-based; conditions: Enterococcus faecium, ATCC6057
How it was run: as §1

[1] = system: S. aureus ATCC 43300 MRSA; assay: as above; assay type: cell-based; conditions: Staphylococcus aureus
How it was run: as §1

S. aureus ATCC 6538P = assay: as above; assay type: cell-based; conditions: Staphylococcus aureus, ATCC6538P
How it was run: as §1

[2] = system: S. epidermidis ATCC 12228; assay: as above; assay type: cell-based; conditions: Staphylococcus epidermidis, ATCC12228
How it was run: as §1

[3] = system: C. parapsilosis ATCC 22019; assay: antifungal activity (disc-diffusion, MIC, MFC); assay type: cell-based, Candida parapsilosis; conditions: Lodderomyces parapsilosis, ATCC22019; for MIC: fluconazole by Etest
How it was run: as §1

[4] = system: C. guilliermondii IBA 155; assay: antifungal activity (disc-diffusion, MIC, MFC); assay type: cell-based, Candida guilliermondii; conditions: Meyerozyma guilliermondii, IBA155; for MIC: fluconazole by Etest
How it was run: as §1

C. albicans ATCC 90028 = assay: antifungal activity (disc-diffusion, MIC, MFC); assay type: cell-based; conditions: Candida albicans, ATCC90028; for MIC: fluconazole by Etest
How it was run: as §1

C. tropicalis ATCC 750 = assay: antifungal activity (disc-diffusion, MIC, MFC); assay type: cell-based; conditions: Candida tropicalis, ATCC750; for MIC: fluconazole by Etest
How it was run: as §1

C. tropicalis IBA 171 = assay: antifungal activity (disc-diffusion, MIC, MFC); assay type: cell-based; conditions: Candida tropicalis, IBA171; for MIC: fluconazole by Etest
How it was run: as §1

S. cerevisiae ATCC 9763 = assay: antifungal activity (disc-diffusion, MIC, MFC); assay type: cell-based; conditions: Saccharomyces cerevisiae, ATCC9763; for MIC: fluconazole by Etest; for zone of inhibition at 0.4 mg/disc: 0.4 mg per disc, 9 mm disc (fluconazole 0.025 mg, 6 mm disc), - no zone, read-out: Diameter of inhibition zone
How it was run: as §1

E. coli 76 KPC-2(+) = assay: MIC of tested agent alone, microdilution; assay type: cell-based
Protocol: (§2) To examine the ability of tested agents to inhibit various carbapenemases and AmpC-enzymes, their synergy with antibiotics against β-lactamase-producing strains was assessed by checkerboard microdilution assay, with slight modification. Checkerboards were prepared in microtiter plates, with seven two-fold dilutions of β-lactams (1–64 mg/L) in the rows and three two-fold dilutions of tested agents and PBA (4–16 mg/L) in the columns. Tested agents’ concentrations were limited to the concentrations at which the newest commercially available BLIs (vaborbactam, relebactam, and avibactam) are used in susceptibility testing. Plates were inoculated and incubated as in the MIC microdilution assay. Parallel, MICs of tested agents and PBA alone were determined by the microdilution assay. Following the incubation, antibiotic MICs in the presence of each agent’s concentration were determined. Moreover, for the first well without growth found in each checkerboard row and column along the growth/non-growth interface, the fractional inhibitory concentration index (FICI) was calculated using the formula below:FICI = [(MIC of antibiotic in combination)/(MIC of antibiotic alone)] + [(MIC of the tested agent in combination)/(MIC of tested agent alone)].

E. coli 77 CMY-2(+) = assay: MIC of tested agent alone, microdilution; assay type: cell-based
Protocol: as §2

[5] = system: K. pneumoniae 81 KPC-3(+); assay: MIC of tested agent alone, microdilution; assay type: cell-based
Protocol: as §2

[6] = system: K. pneumoniae 83 KPC-3(+), CTX-M-3(+); assay: MIC of tested agent alone, microdilution; assay type: cell-based
Protocol: as §2

[7] = system: K. pneumoniae ATCC BAA-1705 KPC-2(+); assay: MIC of tested agent alone, microdilution; assay type: cell-based
Protocol: as §2

[8] = system: P. aeruginosa MUW 700 AmpC(+); assay: MIC of tested agent alone, microdilution; assay type: cell-based
Protocol: as §2

[9] = system: K. pneumoniae ATCC BAA 1705 KPC-2-positive; assay: combination disc test CDT-KPC; assay type: cell-based; conditions: Klebsiella pneumoniae
[10] = system: P. aeruginosa MUW 700 cAmpC-positive; assay: combination disc test CDT-AmpC; assay type: cell-based; conditions: Pseudomonas aeruginosa, read-out: Diameter of inhibition zone, CAZ-30 disc with agent
[11] = system: E. coli 77 CMY-2-positive; assay: combination disc test CDT-AmpC; assay type: cell-based; conditions: Escherichia coli, read-out: Diameter of inhibition zone, CAZ-30 disc with agent
[12] = system: P. aeruginosa MUW 700 cAmpC-positive; assay: checkerboard microdilution, antibiotic plus tested agent; assay type: cell-based, Pseudomonas aeruginosa
Protocol: as §2
For calculations, all off-scale MICs were converted to the next-highest doubling concentration. Subsequently, both the average and the lowest FICI were interpreted. The interpretation was as follows: FICI ≤ 0.5, synergy; 0.5 < FICI ≤ 4, indifference and FICI > 4, antagonism. Primarily, examined combinations consisted of meropenem (Pol-Aura, Morag, Poland) plus tested agents against carbapenemases-producing strains and ceftazidime (Pol-Aura, Morag, Poland) plus tested agents against AmpC-producing strains. For agents that reduced meropenem MIC at least 4-fold for at least two tested strains, similar assays were performed with imipenem (Pol-Aura, Morag, Poland) and ertapenem (Pol-Aura, Morag, Poland).

[13] = 0.4 mg per disc, 9 mm disc (linezolid 0.03 mg, 6 mm disc), - no zone, read-out: Diameter of inhibition zone
[14] = Escherichia coli; read-out: MIC of agent alone
[15] = Klebsiella pneumoniae; read-out: MIC of agent alone
[16] = Klebsiella pneumoniae, ATCCBAA1705; read-out: MIC of agent alone
[17] = Pseudomonas aeruginosa; read-out: MIC of agent alone
[18] = 0.4 mg per disc, 9 mm disc (fluconazole 0.025 mg, 6 mm disc), - no zone, read-out: Diameter of inhibition zone
[19] = Escherichia coli, read-out: MIC of agent alone
[20] = Klebsiella pneumoniae, read-out: MIC of agent alone

Row | SMILES | MIC (E. faecalis ATCC 29212) [µg/mL] | MIC (E. faecium ATCC 6057) [µg/mL] | MIC [1] [µg/mL] | MIC (S. aureus ATCC 6538P) [µg/mL] | MIC [2] [µg/mL] | MIC [3] [µg/mL] | MIC [4] [µg/mL] | MIC (C. albicans ATCC 90028) [µg/mL] | MIC (C. tropicalis ATCC 750) [µg/mL] | MIC (C. tropicalis IBA 171) [µg/mL] | MIC (S. cerevisiae ATCC 9763) [µg/mL] | MIC (E. coli 76 KPC-2(+); [14]) [µg/mL] | MIC (E. coli 77 CMY-2(+); [14]) [µg/mL] | MIC [5, 15] [µg/mL] | MIC [6, 15] [µg/mL] | MIC [7, 16] [µg/mL] | Average FICI with ceftazidime [12] | Interpretation of the average FICI with ceftazidime [12] | Interpretation of the lowest FICI with ceftazidime [12] | The lowest FICI with ceftazidime [12] | other results
1 | OB(O)c1cc(B(O)O)c(F)cc1F [2c] | 400 (≈ 1980 µM) | 400 (≈ 1980 µM) | 100 (≈ 496 µM) | 50 (≈ 248 µM) | 50 (≈ 248 µM) | > 400 | > 400 | > 400 | > 400 | > 400 | > 400 | 200 | 200 | 200 | 200 | 400 | 0.22 | S (FICI ≤ 0.5, synergy) | S (FICI ≤ 0.5, synergy) | 0.15 | zone of inhibition at 0.4 mg/disc [1, 13]: 19 mm; zone of inhibition at 0.4 mg/disc (S. aureus ATCC 6538P; [13]): 20 mm; MIC [8, 17]: > 400 µg/mL; zone of inhibition at 100 µg/disc ([9]; BAA1705, agent 0.1 mg per disc, read-out: Diameter of inhibition zone, MEM-10 disc with agent): 6 mm; zone of inhibition at 100 µg/disc ([10]; agent 0.1 mg per disc): 20 mm; zone of inhibition at 100 µg/disc ([11]; agent 0.1 mg per disc): 19 mm
2 | OB(O)c1cc(F)ccc1F [7a, 2,5-difluorophenylboronic acid] | 400 (≈ 2530 µM) | 400 (≈ 2530 µM) | 100 (≈ 633 µM) | 50 (≈ 317 µM) | 100 (≈ 633 µM) | 25 (≈ 158 µM) | 25 (≈ 158 µM) | 25 (≈ 158 µM) | 50 (≈ 317 µM) | 25 (≈ 158 µM) | 50 (≈ 317 µM) | 100 | 100 | 200 | 100 | 100 | 0.17 | S (FICI ≤ 0.5, synergy) | S (FICI ≤ 0.5, synergy) | 0.10 | zone of inhibition at 0.4 mg/disc [3, 18]: 21 mm; zone of inhibition at 0.4 mg/disc [4, 18]: 33 mm; zone of inhibition at 0.4 mg/disc (C. albicans ATCC 90028; [18]): 29 mm; zone of inhibition at 0.4 mg/disc (C. tropicalis ATCC 750; [18]): 21 mm; zone of inhibition at 0.4 mg/disc (C. tropicalis IBA 171; [18]): 25 mm; zone of inhibition at 0.4 mg/disc (S. cerevisiae ATCC 9763): 18 mm; MIC [8, 17]: 400 µg/mL; zone of inhibition at 30 µg/disc ([9]; BAA1705, agent 0.03 mg per disc, read-out: Diameter of inhibition zone, MEM-10 disc with agent): 13 mm; zone of inhibition at 30 µg/disc ([10]; agent 0.03 mg per disc): 17 mm; zone of inhibition at 30 µg/disc ([11]; agent 0.03 mg per disc): 19 mm
3 | OB(O)c1cccc(F)c1B(O)O [3b] | > 400 | > 400 | > 400 | > 400 | 400 (≈ 2180 µM) | 200 (≈ 1090 µM) | 400 (≈ 2180 µM) | 400 (≈ 2180 µM) | 200 (≈ 1090 µM) | 200 (≈ 1090 µM) | 100 (≈ 544 µM) | > 400 | > 400 | > 400 | > 400 | > 400 | 0.60 | I (0.5 < FICI ≤ 4, indifference) | S (FICI ≤ 0.5, synergy) | 0.27 | zone of inhibition at 0.4 mg/disc [2, 13]: 21 mm; zone of inhibition at 0.4 mg/disc (S. cerevisiae ATCC 9763): 13 mm; MIC [8, 17]: > 400 µg/mL; zone of inhibition at 300 µg/disc ([9]; BAA1705, agent 0.3 mg per disc, read-out: Diameter of inhibition zone, MEM-10 disc with agent): 14 mm; zone of inhibition at 300 µg/disc ([10]; agent 0.3 mg per disc): 22 mm; zone of inhibition at 300 µg/disc ([11]; agent 0.3 mg per disc): 25 mm
4 | OB(O)c1ccccc1 [PBA, phenylboronic acid, reference compound] |  |  |  |  |  |  |  |  |  |  |  |  |  |  |  |  | 0.10 | S (FICI ≤ 0.5, synergy) | S (FICI ≤ 0.5, synergy) | 0.07 | MIC (E. coli 76 KPC-2(+); [19]): > 400 µg/mL; MIC (E. coli 77 CMY-2(+); [19]): > 400 µg/mL; MIC [5, 20]: > 400 µg/mL; MIC [6, 20]: > 400 µg/mL; MIC ([7]; Klebsiella pneumoniae, ATCCBAA1705, read-out: MIC of agent alone): > 400 µg/mL; MIC ([8]; Pseudomonas aeruginosa, read-out: MIC of agent alone): > 400 µg/mL; zone of inhibition at 300 µg/disc ([9]; BAA1705, read-out: Diameter of inhibition zone, MEM-10 disc with agent): 21 mm; zone of inhibition at 300 µg/disc [10]: 24 mm; zone of inhibition at 300 µg/disc [11]: 24 mm
